Reference: PubChem BioAssay AID330 (DTP/NCI, 2004)
Where “and” joins values, the source holds several entries; their conditions need not be identical. Equal entries are not always repeated. Inconclusive results and toxic doses are left out. Rule for the calls: active = survival T/C of 150% or more; inactive = T/C below 125% in these data.

System: P388 leukemia ip, CD2F1 mice, survival T/C
Test: NCI In Vivo Anticancer Drug Screen. Data for tumor model P388 Leukemia (intraperitoneal) in CD2F1 (CDF1) mice
Settings: endpoint: median survival time, higher = longer survival
Method in brief: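 Mice carrying the transplanted tumor received test compound or vehicle. Survival was recorded in each group, and the value is the treated-group measurement divided by that of the vehicle-treated control group.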

[1] = dose: 50.0 mg/kg/injection, schedule: Q01DX009 (ip), vehicle: saline with Tween-80
[2] = dose: 100.0 mg/kg/injection, schedule: Q01DX009 (ip), vehicle: saline with Tween-80
[3] = dose: 200.0 mg/kg/injection, schedule: Q01DX009 (ip), vehicle: saline with Tween-80
[4] = dose: 50.0 mg/kg/injection, schedule: Q01DX005 (ip), vehicle: saline with Tween-80
[5] = dose: 60.0 mg/kg/injection, schedule: Q01DX005 (ip), vehicle: saline with Tween-80
[6] = dose: 120.0 mg/kg/injection, schedule: Q01DX005 (ip), vehicle: saline with Tween-80
[7] = dose: 240.0 mg/kg/injection, schedule: Q01DX005 (ip), vehicle: saline with Tween-80

Measured: T/C

CCC(=O)OC1CC2(C)C(=CC1=O)CCC1C2CCC2(C)C(OC(=O)CC)CCC12 (stereo not given)
inactive: [1] 100 % of control | [2] 95 % of control | dose: 100.0 mg/kg/injection, schedule: Q04DX003 (ip), vehicle: saline with Tween-80 100 % of control | [3] 100 % of control | dose: 200.0 mg/kg/injection, schedule: Q04DX003 (ip), vehicle: saline with Tween-80 100 % of control

CN1C(=O)c2ccccc2CC12c1ccccc1C(=O)N2C (stereo not given)
inactive: dose: 12.5 mg/kg/injection, schedule: Q01DX005 (ip), vehicle: saline with Tween-80 94 % of control | dose: 25.0 mg/kg/injection, schedule: Q01DX005 (ip), vehicle: saline with Tween-80 90 % of control | [4] 108 % of control

CC1CCC23C1CC(CC(=O)C2(C)O)C3(C)C (stereo not given)
inactive: [5] 100 % of control | [6] 97 % of control | [7] 106 % of control

OCC1OC(n2cc(I)c3c2ncn2ccnc32)C(O)C1O (stereo not given)
inactive: dose: 1.56 mg/kg/injection, schedule: Q01DX009 (ip), vehicle: water 98 % of control | dose: 3.13 mg/kg/injection, schedule: Q01DX009 (ip), vehicle: water 102 % of control | dose: 6.25 mg/kg/injection, schedule: Q01DX009 (ip), vehicle: water 100 % of control | dose: 12.5 mg/kg/injection, schedule: Q01DX009 (ip), vehicle: water 102 % of control | dose: 25.0 mg/kg/injection, schedule: Q01DX009 (ip), vehicle: water 106 % of control

COC(=O)Cn1ccnc1[N+](=O)[O-]
inactive: dose: 12.5 mg/kg/injection, schedule: Q01DX009 (ip), vehicle: distilled water + Tween-80 100 % of control | dose: 25.0 mg/kg/injection, schedule: Q01DX009 (ip), vehicle: distilled water + Tween-80 93 % of control | dose: 50.0 mg/kg/injection, schedule: Q01DX009 (ip), vehicle: distilled water + Tween-80 93 % of control | dose: 100.0 mg/kg/injection, schedule: Q01DX009 (ip), vehicle: distilled water + Tween-80 93 % of control | dose: 200.0 mg/kg/injection, schedule: Q01DX009 (ip), vehicle: distilled water + Tween-80 90 % of control

O=C1CC2(CCCCC2)CC(=O)N1c1ccc(O)c(CN2CCCCC2)c1
inactive: dose: 50.0 mg/kg/injection, schedule: Q01DX009 (ip), vehicle: Klucel (hydroxypropylcellulose) (HPC) 104 % of control | dose: 100.0 mg/kg/injection, schedule: Q01DX009 (ip), vehicle: Klucel (hydroxypropylcellulose) (HPC) 108 % of control | dose: 200.0 mg/kg/injection, schedule: Q01DX009 (ip), vehicle: Klucel (hydroxypropylcellulose) (HPC) 102 % of control

COc1ccc(/C=N\N=C(/[O-])c2ccc(Cl)cc2)cc1.COc1ccc(/C=N\N=C(/[O-])c2ccc(Cl)cc2)cc1.[Co+2].[OH3+].[OH3+]
inactive: dose: 100.0 mg/kg/injection, schedule: Q04DX002 (ip), vehicle: saline with Tween-80 93 % of control | dose: 200.0 mg/kg/injection, schedule: Q04DX002 (ip), vehicle: saline with Tween-80 102 % of control | dose: 400.0 mg/kg/injection, schedule: Q04DX002 (ip), vehicle: saline with Tween-80 103 % of control

Cc1ccc(C=Nc2ccc(Cl)c(Cl)c2)cc1
inactive: [5] 100 % of control | [6] 108 % of control | [7] 89 % of control

N#CSCc1ccc(Cl)cc1Cl
inactive: [1] 109 % of control | [2] 113 % of control | [3] 113 % of control

CN(C)C(P1(=O)OC(C)(C)C(C)(C)O1)P1(=O)OC(C)(C)C(C)(C)O1
inactive: dose: 50.0 mg/kg/injection, schedule: Q01DX005 (ip), vehicle: saline 104 % of control | dose: 100.0 mg/kg/injection, schedule: Q01DX005 (ip), vehicle: saline 99 % of control | dose: 200.0 mg/kg/injection, schedule: Q01DX005 (ip), vehicle: saline 98 % of control

CC1CN(C)CCN1C (stereo not given)
inactive: [2] 100 % of control | [3] 100 % of control | dose: 400.0 mg/kg/injection, schedule: Q01DX009 (ip), vehicle: saline with Tween-80 95 % of control

COc1ccc2c(C)cc(N/N=C/c3ccccn3)nc2c1
inactive: dose: 25.0 mg/kg/injection, schedule: Q01DX005 (ip), vehicle: Klucel (hydroxypropylcellulose) (HPC) 102 % of control and 112 % of control | dose: 50.0 mg/kg/injection, schedule: Q01DX005 (ip), vehicle: Klucel (hydroxypropylcellulose) (HPC) 104 % of control and 118 % of control and 93 % of control | dose: 100.0 mg/kg/injection, schedule: Q01DX005 (ip), vehicle: Klucel (hydroxypropylcellulose) (HPC) 104 % of control and 112 % of control

N#CCCSC(=S)N1CCCC1=O
inactive: [4] 103 % of control | dose: 100.0 mg/kg/injection, schedule: Q01DX005 (ip), vehicle: saline with Tween-80 104 % of control | dose: 200.0 mg/kg/injection, schedule: Q01DX005 (ip), vehicle: saline with Tween-80 114 % of control
